Measured values as given in PubChem BioAssay (NCI).
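Growth conditions: 96-well plates. Treatment: test compound, 48 hours, 5 concentrations. Analysis: linear interpolation between bracketing concentrations; unreached endpoints set to highest concentration. Abbreviation: GI50, concentration required for 50% inhibition of growth. TGI marks complete inhibition of growth.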

Key:
Experiment in all cases: NCI-60 cell line screen, 48 h
SK-OV-3 ovarian = tested on: SK-OV-3 ovarian
COLO 205 colon = tested on: COLO 205 colon
UO-31 renal = tested on: UO-31 renal
A498 renal = tested on: A498 renal
SK-MEL-5 melanoma = tested on: SK-MEL-5 melanoma
SF-295 CNS = tested on: SF-295 CNS
NCI/ADR-RES ovarian = tested on: NCI/ADR-RES ovarian
OVCAR-4 ovarian = tested on: OVCAR-4 ovarian
HOP-62 NSCLC = tested on: HOP-62 NSCLC
SF-268 CNS = tested on: SF-268 CNS

Row | Compound | GI50 (SK-OV-3 ovarian) | TGI (SK-OV-3 ovarian) | GI50 (COLO 205 colon) | TGI (COLO 205 colon) | GI50 (UO-31 renal) | TGI (UO-31 renal) | GI50 (A498 renal) | TGI (A498 renal) | GI50 (SK-MEL-5 melanoma) | TGI (SK-MEL-5 melanoma) | GI50 (SF-295 CNS) | TGI (SF-295 CNS) | GI50 (NCI/ADR-RES ovarian) | TGI (NCI/ADR-RES ovarian) | GI50 (OVCAR-4 ovarian) | TGI (OVCAR-4 ovarian) | GI50 (HOP-62 NSCLC) | TGI (HOP-62 NSCLC) | GI50 (SF-268 CNS) | TGI (SF-268 CNS)
1 | O=C(Nc1ccc(Nc2ccncc2)cc1)c1ccc([N+](=O)[O-])cc1 | 5.85 µM | 19.8 µM | 1.9 µM | 3.73 µM | 3.46 µM | 10.4 µM | 2.43 µM | 9 µM | 4.89 µM | 21.4 µM | 3.79 µM | 10.3 µM | 14.2 µM | > 62.5 µM | 5.37 µM | 27.4 µM | 13.7 µM | 29 µM | 6.79 µM | 27.5 µM
2 | COc1cc(Nc2ncccc2C(=O)NCc2cn(Cc3cccc(Oc4ccccc4)c3)nn2)cc(OC)c1 | 4.33 µM | > 100 µM | 4.12 µM | > 100 µM | 5.25 µM | > 100 µM | 4.18 µM | > 100 µM | 3.11 µM | > 100 µM | 4.06 µM | > 100 µM | 3.21 µM | > 100 µM | 5.42 µM | > 100 µM | 6.31 µM | > 100 µM | 5.43 µM | > 100 µM
3 | CN1CCN(C2CCN(C(=O)Nc3cc(Oc4ccc(NC(=O)C5(C(=O)Nc6ccc(F)cc6)CC5)c(F)c4)ccn3)CC2)CC1 | 1.3 µM | > 10 µM | 0.977 µM | > 2.19 µM | 1.46 µM | > 10 µM | 0.315 µM | 1.38 µM | 2.43 µM | 6.36 µM | 0.47 µM | > 3.67 µM | > 8.16 µM | > 10 µM | 1.14 µM | 9.84 µM |  | > 3.92 µM |  | > 2.96 µM
4 | O=CCC1CCCCC1 |  | > 100 µM |  | > 100 µM |  | > 100 µM |  | > 100 µM |  | > 100 µM |  | > 100 µM |  | > 100 µM |  | > 100 µM |  | > 100 µM |  | > 100 µM
5 | CC1(C)S[C@@H]2[C@H](NC(=O)C3(N)CCCCC3)C(=O)N2[C@H]1C(=O)O |  | > 100 µM |  | > 100 µM |  | > 100 µM |  | > 100 µM |  | > 100 µM |  | > 100 µM |  | > 100 µM |  | > 100 µM |  | > 100 µM |  | > 100 µM
6 | O=C(O)COc1ccc2c(=O)c3sc4c(=O)c5ccccc5c(=O)c4c3c(=O)c2c1 | 16.6 µM | 43.9 µM | 13.7 µM | 31.4 µM | 11.8 µM | 30.1 µM | 14.7 µM | 28.1 µM | 1.75 µM | 3.35 µM | 6.72 µM | 20.6 µM | 29.9 µM | > 100 µM | 14.1 µM | 27.3 µM | 8.03 µM | 22.4 µM | 14.8 µM | 48.9 µM
